Assay results reported in US20240180989A1, “LIGUSTRUM LUCIDUM EXTRACT USEFUL FOR THE TREATMENT AND/OR CARE OF THE SKIN” (Lubrizol Advanced Materials, Inc., priority 2021, published 2024).

Experiments:
arginase = assay: Arginase activity reduction in human epidermal keratinocytes (colorimetric Arginase Activity kit); format: cell-based; conditions: 1 mM, donor
Protocol: Human epidermal keratinocytes (HEK) of donor (Tebu Bio), donor (Promocell) and donor (Promocell) are seeded in 6-well plates at a density of 3×10^5 cells/well in keratinocyte growth medium supplemented with Mix C39016-CaCl2 solution (Promocell). […] The donor's cells treated with S-(2-Boronoethyl)-L-cysteine hydrochloride (BEC, Sigma) 1 mM are used as positive control of arginase inhibition, and the donor's, donor's and 26-year-old donor's cells treated with medium alone are used as basal control of arginase activity at different ages. Treatment is continued for 24 hours. After 24 hours, cells are lysed and are analyzed by a colorimetric Arginase Activity kit (Abcam) according to manufacturer's instructions. […] Absorbance is measured by using a microplate reader (Clariostar, BMG) set to 570 nm in a kinetic mode for 30 minutes. […] Arginase activity is calculated in the exponential phase of the kinetic for each sample with the following equation: AOD═(OD2−ODBG2)−(OD1−ODBG1); where: OD1 and OD2 is the sample reading at time T1 and T2 respectively, ODBG1 and ODBG2 is the sample background reading at time T1 and T2 respectively.
Total protein amount of each sample is determined using a Pierce BCA protein assay kit (Thermo fisher) according to the manufacturer's protocol. […] Afterwards, color change is measured with an absorbance microplate reader (Clariostar, BMG) at 562 nm. […]

[1] = system: peroxynitrite production in Human epidermal keratinocytes (HEK); assay: Quantification of peroxynitrite production in human epidermal keratinocytes; format: cell-based; conditions: 1 hour, per cell
Protocol: Human epidermal keratinocytes (HEK) are seeded in 96-well plates at a density of 3×10^4 cells/well in keratinocyte growth medium supplemented with Mix C39016-CaCl2 solution (Promocell). After 24 hours incubation, medium is replaced with fresh culture medium with scalar dilutions of the subcritical water extract at 160° C. of Example 2. Treatment is continued for 24 hours and cells treated with medium alone are used as basal control. After 24 hours incubation, peroxynitrite production is measured by a fluorescence approach with Peroxynitrite assay kit (Abcam) following the manufacturer's instructions. In brief, cells are treated with 10 μl/well sensor green working solution during 1 hour in the medium. Cells treated with SIN-1 (Sigma) 11 mM or 5.76 mM during 1 hour in combination with sensor green solution are used as a positive control of peroxynitrite production. SIN-1 (Sigma) is a nitric oxide donor. After 1-hour incubation, fluorescence is measured with an […] microplate reader (Clariostar, BMG) at excitation 490 nm and emission 530 nm. […] Cell nuclei number is determined with a confocal microscopy Operetta (PerkinElmer). Peroxynitrite fluorescence intensity is normalized to cell number for each condition.
The results in Table 8 are expressed as a percentage of peroxynitrite per cell normalized by basal condition.

| SMILES | Arginase activity MEAN subtracting basal condition and normalizing respect basal condition of cells (arginase) [%] | Arginase activity MEAN respect basal condition of cells (arginase; 24 h) [%] | Peroxynitrite production MEAN respect basal condition ([1]; 5.76 mM) [%] | Peroxynitrite production MEAN respect basal condition ([1]; 11 mM) [%] |
| --- | --- | --- | --- | --- |
| Cl.N[C@@H](CSCCB(O)O)C(=O)O [BEC, S-(2-Boronoethyl)-L-cysteine hydrochloride] | −10.58 | 70.10 | – | – |
| [NH-]c1c[n+](N2CCOCC2)no1 [SIN-1] | – | – | 2379.00 | 1654.00 |
